Data reported in patent US9271503B2, “Control of insect pests” (priority 2011, dated 2016).

Tested on: B. tabaci b-biotype adults and nymphs
Experiment: Field trial on silverleaf whitefly against conventional insecticide (Example 21)
Type: in vivo, Bemisia tabaci
Details: formulations 2.0 L/ha, Diafenthiuron 0.80 L/ha
Description: The trial was conducted in an irrigated conventional cotton crops in a cotton farm. […] Each replicated plot measured 24 m wide 100 m long.
Foliar applications of each treatment were made over two weeks. Pre-treatment counts were made visually of B. tabaci adults and nymphs, on the under-surface of leaves of cotton plants in each treatment. […] Data of both adults and nymphs were expressed as numbers per leaf for each treatment.
Treatment and sample dates were the independent variables.

**Q.** What does the source list for `CC(C)c1cc(Oc2ccccc2)cc(C(C)C)c1NC(=S)NC(C)(C)C` [Diafenthiuron]?
**A.** Bemisia tabaci adults per leaf, 3 DAT: 15.33 ± 1.45 a per leaf; Bemisia tabaci adults per leaf, 7 DAT: 20.33 ± 2.40 ab per leaf; Bemisia tabaci adults per leaf, 14 DAT: 12.00 ± 0.88 a per leaf; Bemisia tabaci nymphs per leaf, 3 DAT: 28.67 ± 7.22 b per leaf; Bemisia tabaci nymphs per leaf, 7 DAT: 15.33 ± 2.40 a per leaf; Bemisia tabaci nymphs per leaf, 14 DAT: 17.00 ± 1.73 b per leaf; Bemisia tabaci adults, 3 DAT (% mortality) (relative to the control): (54.7%); Bemisia tabaci adults, 7 DAT (% mortality) (relative to the control): (32.2%); Bemisia tabaci adults, 14 DAT (% mortality) (relative to the control): (34.5%); Bemisia tabaci nymphs, 7 DAT (% mortality) (relative to the control): (22.1%); Bemisia tabaci nymphs, 14 DAT (% mortality) (relative to the control): (60.6%); Bemisia tabaci adults, 3 DAT (% mortality) (relative to the control, listed as conventional insecticide): 38.7%
